Where no end group is shown, it is not given here.
How the values were obtained:
[1] = tested on: S. aureus ATCC 33592 (MRSA); experiment: Minimum inhibitory concentrations on agar plates (spotted serial dilutions); assay type: cell-based, Staphylococcus aureus; conditions: S. aureus ATCC 33592 (MRSA) versus S. aureus SG511 (MSSA); serial dilutions in half-concentrated Müller-Hinton broth, 10 µl spotted on Müller Hinton agar lawn, overnight; lichenicidin as isopropanol wash extract
Procedure: (§1) For the comparison of the antibacterial efficacy of lichenicidin to other lantibiotics, Pep5 [52] and nisin [53] were purified as described previously, and mersacidin was obtained from Sanofi-Aventis (Frankfurt, Germany). Serial dilutions of the lantibiotics and the isopropanol wash extract were prepared in half-concentrated Müller-Hinton broth. Fresh colonies of all indicator organisms were used to prepare cell suspensions of about 5×10^6 colony forming units per ml which were employed to inoculate Müller Hinton agar plates. Ten µl of the lantibiotic solutions were spotted onto the indicator plates. The highest dilution yielding a clear inhibition zone on the lawn was detected by visual inspection after incubation overnight.

[2] = tested on: S. aureus LT440/09 (cMRSA); experiment: as above; assay type: cell-based, Staphylococcus aureus; conditions: S. aureus LT440/09 (cMRSA) versus S. aureus SG511 (MSSA); serial dilutions in half-concentrated Müller-Hinton broth, 10 µl spotted on Müller Hinton agar lawn, overnight; lichenicidin as isopropanol wash extract
Procedure: as §1

| Substance | minimum inhibitory concentration on agar plates, fold higher than against S. aureus SG511 [1] [fold] | minimum inhibitory concentration on agar plates, fold higher than against S. aureus SG511 [2] [fold] |
| --- | --- | --- |
| mersacidin: lantibiotic obtained from Sanofi-Aventis (CTFTLPGGGGVCTLTSECIC; also: lantibiotic: thioether bridges, places not given here; UniProt P43683 49-68, looked up) | 4.8±1.6 | 4.7±1.6 |
| nisin | 1.83±0.41 | 2.67±1.03 |
